The values that follow come from PMC5669356, “Continuous degradation of maltose by enzyme entrapment technology using calcium alginate beads as a matrix” (Biochemistry and Biophysics Reports, 2015).

In the assay the test system is maltase. In words: GOD-PAP glucose release assay, Lineweaver-Burk plot. It counts as biochemical, Bacillus licheniformis. Particulars: free (soluble) enzyme, partially purified; maltose 2.5-50 mM; pH and temperature of the kinetics not stated.

For `OC[C@H]1O[C@H](O[C@H]2[C@H](O)[C@@H](O)C(O)O[C@@H]2CO)[C@H](O)[C@@H](O)[C@@H]1O` (stereo partly shown) [maltose], the Km came to 1.71 mM ml^−1.
